Experiments:
[1] = test system: tumor metabolic activity (SUV); experiment: Metabolic tumor response by 18[F]-FDG-PET; type: in vivo, human
Experimental: Pharmacodynamic markers were examined using peripheral blood samples, tumor and nevi biopsies (when available) and tumor imaging. BRAF mutation status was determined by Sanger sequencing. Pharmacodynamic markers analyzed, in available tumor/nevus samples obtained before treatment or archival tissue and during treatment on cycle 1, day 8 or day 15, including cytoplasmic p‐MEK, p‐ERK, BIM, c‐KIT, p‐AKT473, pS6 and PTEN, and nuclear p‐ERK, Ki‐67, PARP, cyclin D1, MITF, p27, and p53. Biomarker expression was determined by calculating the percentage of change in the H‐score (14) between on‐treatment and fresh/archival pretreatment specimens. Blood levels of VEGFR‐2 and were assessed before and at multiple time points while on treatment using enzyme‐linked immunosorbent assay (ELISA). […] Changes in standard uptake value (SUV) were determined by a blinded, independent central imaging review panel. Complete metabolic response (CMR) was complete resolution of tumor FDG‐PET uptake so SUV is the same as background. Partial metabolic response (PMR) decrease in sum of the tumor SUV of ≥25% from the baseline scan. Progressive metabolic disease (PMD) was defined as an increase in tumor SUV of ≥25% from the baseline scan, or the appearance of new FDG‐PET uptake in metastatic lesions. Stable metabolic disease (SMD) was defined as a change in tumor SUV between the PMR and PMD criteria.

[2] = test system: patients with locally advanced or metastatic melanoma; experiment: Phase I dose-escalation: safety, adverse events (NCI CTCAE v3.0), DLT and MTD; type: in vivo
Description: This study was an open‐label, multicenter, nonrandomized, phase I/II, dose‐escalation study of orally administered RAF265. […] The study was comprised of two phases: A dose escalation phase and an expansion phase at the MTD/RP2D. The dose‐escalation phase was guided by pharmacokinetics (PK), pharmacodynamics (PD) and safety. […] In the expansion phase (cohort 7.1) the PK run in was omitted and patients received a loading dose in 3 divided doses followed by lower daily dose beginning on Cycle 1, Day 2. The cycle length was 28 days in all cohorts. Here, we report the dose escalation and expansion arm investigating a continuous treatment regimen.
Medical history and demographics were collected at screening. The safety of study medication was evaluated on the basis of rate, type, severity graded in accordance with NCI CTCAE version 3.0. Safety assessments consisted of collecting all AEs, serious adverse events (SAEs) with their severity and relationship with study drug, and pregnancies. They included the regular monitoring of hematology, blood chemistry and urine performed at the study center/central laboratory and regular assessments of vital signs, physical condition, body weight, performance status, and cardiac data (i.e. electrocardiogram (ECG)/echocardiogram (ECHO)). Abnormalities in clinical laboratory tests that were considered clinically significant by the Investigator were recorded on the AE CRF. Dose‐limiting toxicities (DLTs) were defined for various organ systems and other clinically relevant adverse effects (Table S1). The DLT window was the first cycle while AEs were captured for the entire course of treatment. Evaluation of tumor response was conducted at Baseline, and at the end of every 8 weeks of treatment. Response was assessed using the Response Evaluation Criteria in Solid Tumors (RECIST) 1.0. A complete or partial response (CR or PR) was confirmed at least 28 days after the first assessment that documented response and every two cycles thereafter until disease progression, initiation of confounding anticancer therapy, death, loss to follow‐up, withdrawal of consent, or study termination. All patients discontinuing from the study for progressive disease were to have their disease progression documented by radiologic evaluation.
The MTD was defined as the dose level with 16–33.3% probability of a DLT. […] Descriptive statistic were used for the analysis of PK, biomarker analysis and tumor response data.

## Cn1c(Nc2ccc(C(F)(F)F)cc2)nc2cc(Oc3ccnc(-c4ncc(C(F)(F)F)[nH]4)c3)ccc21 [RAF265]
[1]; BRAF WT disease, C1D15, 1 of 29
  PMR, patients: 3.4%
[1]; BRAF mutant tumors, C1D15, 8 of 33
  PMR, patients: 24.2%
[1]; BRAF-WT disease, C1D28, 3 of 28
  PMR, patients: 10.7%
[1]; BRAF-mutant tumors, C1D28, 8 of 28
  PMR, patients: 28.6%
[1]; C1D15, 10 of 65
  partial metabolic response (PMR), patients: 15.4%
[1]; C1D15, 65 patients
  progressive metabolic disease (PMD), patients: 13.8%
  stable metabolic disease (SMD), patients: 70.8%
[1]; C1D28, 58 evaluable patients, all dose levels
  partial metabolic response (PMR), patients: 20.7%
[1]; C1D28, 58 patients
  progressive metabolic disease (PMD), patients: 17.2%
  stable metabolic disease (SMD), patients: 62.1%
[1]; in vivo
  patients with RECIST-defined responses who also had partial metabolic response: Five of eight
[2]; 5 deaths, none deemed treatment related
  deaths within 28 days of last administration of the study drug: 6.5%
[2]; human, in vivo
  AEs requiring dose adjustment or interruption, patients: 39%
  Abdominal pain (treatment-emergent grade 3/4): 1 (2.4%) n (%)
  Angina unstable (treatment-emergent grade 3/4): 1 (2.4%) n (%)
  Ataxia (treatment-emergent grade 3/4): 1 (2.4%) n (%)
  Basal cell carcinoma (treatment-emergent grade 3/4): 1 (2.4%) n (%)
  Blood lactic acid increased (treatment-emergent grade 3/4): 1 (2.4%) n (%)
  Cutaneous lupus erythematosus (treatment-emergent grade 3/4): 1 (2.4%) n (%)
  Decreased appetite (treatment-emergent grade 3/4): 2 (4.8%) n (%)
  Diarrhea (treatment-emergent grade 3/4): 4 (9.8%) n (%)
  Dyspnea (treatment-emergent grade 3/4): 1 (2.4%) n (%)
  Fatigue (treatment-emergent grade 3/4): 6 (14.4%) n (%)
  Hematological (treatment-emergent grade 3/4): 12 (29.2%) n (%)
  Hypertension (treatment-emergent grade 3/4): 4 (9.8%) n (%)
  Hypophosphatemia (treatment-emergent grade 3/4): 1 (2.4%) n (%)
  Lipase increased (treatment-emergent grade 3/4): 2 (4.8%) n (%)
  Neutropenia (treatment-emergent grade 3/4): 4 (9.8%) n (%)
  Pancytopenia (treatment-emergent grade 3/4): 1 (2.4%) n (%)
  Pulmonary embolism (treatment-emergent grade 3/4): 2 (4.8%) n (%)
  SAE constipation: 2.6%
  SAE dehydration: 5.2%
  SAE pulmonary embolism: 6.5%
  SAE retinopathy: 2.6%
  SAE thrombocytopenia: 3.9%
  Squamous cell carcinoma (treatment-emergent grade 3/4): 2 (4.8%) n (%)
  Thrombocytopenia (treatment-emergent grade 3/4): 7 (17.1%) n (%)
  Total (n), treatment-emergent grade 3/4 events: 41 (53.2%) n (%)
  Vitreous floaters (treatment-emergent grade 3/4): 2 (4.8%) n (%)
  Weight loss (treatment-emergent grade 3/4): 1 (2.4%) n (%)
  decreased appetite requiring dose adjustment or interruption: 5.2%
  development of hypertension, patients: 17%
  diarrhea requiring dose adjustment or interruption: 6.5%
  fatigue requiring dose adjustment or interruption: 7.8%
  hypertension requiring dose adjustment or interruption: 5.2%
  nausea requiring dose adjustment or interruption: 5.2%
  overall rate of grade 3 and 4 toxicities: 53.2%
  photopsia requiring dose adjustment or interruption: 5.2%
  serious adverse events (SAEs), patients: 37.7%
  thrombocytopenia requiring dose adjustment or interruption: 3.9%
  vitreous floaters requiring dose adjustment or interruption: 5.2%
  vitreous floaters, treatment-related adverse effect, patients: 27%
[2]; human, in vivo, 28 days
  patients with dose-limiting toxicities: 6 patients
[2]; once daily given continuously (dose level 6)
  maximum tolerated dose (MTD): 48 mg
